Measurements taken from paper PMC5578959, “Selective LRRK2 kinase inhibition reduces phosphorylation of endogenous Rab10 and Rab12 in human peripheral mononuclear blood cells” (Scientific Reports, 2017).

Columns and labels:
Assay in all cases: KiNativ profiling in human PBMCs
Format in all cases: binding
LATS1 = system: T1, LATS1
T1 construct: purchased ActivX Technologies (KiNativ)
Protocol: (§1) Compounds were shipped to ActivX Technologies (San Diego, US) where LRRK2 target engagement and broad kinase profiling was performed using KiNativ™ procedures. Live cell treatment of human peripheral blood mononuclear cells (PBMCs) at two compound concentrations (1 µM and 0.1 µM) were used to evaluate and compare in vitro target engagement and kinase selectivity, respectively (see Supplementary File 1).

PLK1 = system: T2, PLK1; conditions: Lys1
T2 construct: purchased ActivX Technologies (KiNativ)
Protocol: as §1

MST1 = system: T3, MST1; conditions: Lys1
T3 construct: purchased ActivX Technologies (KiNativ)
Protocol: as §1

MARK3 = system: T4, MARK3; conditions: Lys1
T4 construct: purchased ActivX Technologies (KiNativ)
Protocol: as §1

PAN3 = system: T5, PAN3; conditions: Protein Kinase Domain
T5 construct: purchased ActivX Technologies (KiNativ)
Protocol: as §1

RSK1 domain2 = system: T6, RSK1 domain2; conditions: Lys2
T6 construct: RSK1 domain2; purchased ActivX Technologies (KiNativ)
Protocol: as §1

PYK2 = system: T7, PYK2; conditions: Lys1
T7 construct: purchased ActivX Technologies (KiNativ)
Protocol: as §1

CaMK4 = system: T8, CaMK4
T8 construct: purchased ActivX Technologies (KiNativ)
Protocol: as §1

IKKb = system: T9, IKKb; conditions: Lys2
T9 construct: purchased ActivX Technologies (KiNativ)
Protocol: as §1

NEK8 = system: T10, NEK8; conditions: Lys2
T10 construct: purchased ActivX Technologies (KiNativ)
Protocol: as §1

BTK = system: T11, BTK; conditions: Activation Loop
T11 construct: purchased ActivX Technologies (KiNativ)
Protocol: as §1

MAP2K1,MAP2K2 = conditions: Lys2
Protocol: as §1

CaMK1d = system: T12, CaMK1d
T12 construct: purchased ActivX Technologies (KiNativ)
Protocol: as §1

[1] = system: CaMK2a,CaMK2b,CaMK2d,CaMK2g; conditions: Lys2
Protocol: as §1

MLK3 = system: T13, MLK3; conditions: Lys2
T13 construct: purchased ActivX Technologies (KiNativ)
Protocol: as §1

PIP4K2C = system: T14, PIP4K2C; conditions: ATP
T14 construct: purchased ActivX Technologies (KiNativ)
Protocol: as §1

RSK2 domain2 = system: T15, RSK2 domain2; conditions: Lys2
T15 construct: RSK2 domain2; purchased ActivX Technologies (KiNativ)
Protocol: as §1

LATS2 = system: T16, LATS2; conditions: Lys2
T16 construct: purchased ActivX Technologies (KiNativ)
Protocol: as §1

MARK2 = system: T17, MARK2; conditions: Lys1
T17 construct: purchased ActivX Technologies (KiNativ)
Protocol: as §1

p70S6K = system: T18, p70S6K; conditions: Lys2
T18 construct: purchased ActivX Technologies (KiNativ)
Protocol: as §1

TLK1 = system: T19, TLK1
T19 construct: purchased ActivX Technologies (KiNativ)
Protocol: as §1

FES = system: T20, FES; conditions: Lys1
T20 construct: purchased ActivX Technologies (KiNativ)
Protocol: as §1

NEK9 = system: T21, NEK9
T21 construct: purchased ActivX Technologies (KiNativ)
Protocol: as §1

TAK1 = system: T22, TAK1; conditions: Lys2
T22 construct: purchased ActivX Technologies (KiNativ)
Protocol: as §1

RSK2 domain1 = system: T23, RSK2 domain1
T23 construct: RSK2 domain1; purchased ActivX Technologies (KiNativ)
Protocol: as §1

NDR1 = system: T24, NDR1
T24 construct: purchased ActivX Technologies (KiNativ)
Protocol: as §1

MLKL = system: T25, MLKL; conditions: Lys1
T25 construct: purchased ActivX Technologies (KiNativ)
Protocol: as §1

LCK = system: T26, LCK; conditions: 1µM; Activation Loop
T26 construct: purchased ActivX Technologies (KiNativ)
Protocol: as §1

ABL,ARG = conditions: Activation Loop
Protocol: as §1

CK1g2 = system: T27, CK1g2; conditions: Lys2
T27 construct: purchased ActivX Technologies (KiNativ)
Protocol: as §1

smMLCK = system: T28, smMLCK
T28 construct: purchased ActivX Technologies (KiNativ)
Protocol: as §1

FER = system: T29, FER
T29 construct: purchased ActivX Technologies (KiNativ)
Protocol: as §1

IRAK1 = system: T30, IRAK1; conditions: Lys2
T30 construct: purchased ActivX Technologies (KiNativ)
Protocol: as §1

HPK1 = system: T31, HPK1
T31 construct: purchased ActivX Technologies (KiNativ)
Protocol: as §1

Cc1cccc(-c2cc(Nc3ccn(C)n3)nc3[nH]cc(C#N)c23)c1 [Lu AF58786]
Inhibition (LATS1; 0.1µM, Lys1): 5.7%
Inhibition (LATS1; 0.1µM, Lys2): -2.7%
Inhibition (LATS1; 1µM, Lys1): 11.6%
Inhibition (PLK1; 0.1µM): -7.7%
Inhibition (PLK1; 1µM): -19.7%
Inhibition (MST1; 0.1µM): 26.2%
Inhibition (MST1; 1µM): 19.0%
Inhibition (MARK3; 0.1µM): 2.1%
Inhibition (MARK3; 1µM): 3.2%
Inhibition (PAN3; 0.1µM): -11.9%
Inhibition (PAN3; 1µM): -9.9%
Inhibition (RSK1 domain2; 0.1µM): 11.6%
Inhibition (RSK1 domain2; 1µM): 5.6%
Inhibition (PYK2; 0.1µM): -16.3%
Inhibition (PYK2; 1µM): -2.7%
Inhibition (CaMK4; 0.1µM, Lys1): 11.0%
Inhibition (CaMK4; 0.1µM, Lys2): 14.0%
Inhibition (CaMK4; 1µM, Lys1): 23.7%
Inhibition (CaMK4; 1µM, Lys2): 12.9%
Inhibition (IKKb; 0.1µM): 11.5%
Inhibition (IKKb; 1µM): -4.3%
Inhibition (NEK8; 0.1µM): -2.3%
Inhibition (NEK8; 1µM): -10.4%
Inhibition (BTK; 0.1µM): 25.8%
Inhibition (BTK; 1µM): 9.5%
Inhibition (MAP2K1,MAP2K2; 0.1 µM, DVKPSNILVNSR): 4.0%
Inhibition (MAP2K1,MAP2K2; 1 µM, DVKPSNILVNSR): 1.8%
Inhibition (MAP2K1,MAP2K2; 1 µM, IMHRDVKPSNILVNSR): 14.1%
Inhibition (CaMK1d; 0.1µM, Lys1): 11.8%
Inhibition (CaMK1d; 0.1µM, Lys2): -11.6%
Inhibition (CaMK1d; 1µM, Lys1): -4.5%
Inhibition (CaMK1d; 1µM, Lys2): -6.3%
Inhibition ([1]; 0.1µM): -12.1%
Inhibition ([1]; 1µM): -1.0%
Inhibition (MLK3; 0.1µM): 1.5%
Inhibition (MLK3; 1µM): 8.8%
Inhibition (PIP4K2C; 0.1µM): 19.6%
Inhibition (PIP4K2C; 1µM): 31.1%
Inhibition (RSK2 domain2; 0.1µM): -3.4%
Inhibition (RSK2 domain2; 1µM): 2.8%
Inhibition (LATS2; 0.1µM): 9.3%
Inhibition (LATS2; 1µM): -1.5%
Inhibition (MARK2; 0.1µM): -6.2%
Inhibition (MARK2; 1µM): -21.2%
Inhibition (p70S6K; 0.1µM): -7.6%
Inhibition (p70S6K; 1µM): -5.7%
Inhibition (TLK1; 0.1µM, Lys1): 2.2%
Inhibition (TLK1; 0.1µM, Lys2): 16.2%
Inhibition (TLK1; 1µM, Lys1): 15.4%
Inhibition (TLK1; 1µM, Lys2): 4.7%
Inhibition (FES; 0.1µM): 13.9%
Inhibition (FES; 1µM): 9.3%
Inhibition (NEK9; 0.1µM, Lys1): 8.4%
Inhibition (NEK9; 0.1µM, Lys2): 12.6%
Inhibition (NEK9; 1µM, Lys1): -0.0314%
Inhibition (NEK9; 1µM, Lys2): -3.7%
Inhibition (TAK1; 0.1µM): 21.8%
Inhibition (TAK1; 1µM): -11.4%
Inhibition (RSK2 domain1; 0.1µM, ATP Loop): 26.3%
Inhibition (RSK2 domain1; 0.1µM, Activation Loop): 16.6%
Inhibition (RSK2 domain1; 0.1µM, Lys2): 1.6%
Inhibition (RSK2 domain1; 1µM, ATP Loop): 13.9%
Inhibition (RSK2 domain1; 1µM, Activation Loop): 32.7%
Inhibition (RSK2 domain1; 1µM, Lys2): 27.1%
Inhibition (NDR1; 0.1µM, Lys1): 0.33%
Inhibition (NDR1; 0.1µM, Lys2): 16.5%
Inhibition (NDR1; 1µM, Lys1): -11.0%
Inhibition (NDR1; 1µM, Lys2): 0.751%
Inhibition (MLKL; 0.1µM): -7.9%
Inhibition (MLKL; 1µM): -7.5%
Inhibition (LCK): 5.7%
Inhibition (ABL,ARG; 0.1µM): -81.9%
Inhibition (ABL,ARG; 1µM): -7.3%
Inhibition (CK1g2; 0.1µM): 5.2%
Inhibition (CK1g2; 1µM): -0.12%
Inhibition (smMLCK; 0.1µM, Lys1): 1.6%
Inhibition (smMLCK; 0.1µM, Lys2): 3.0%
Inhibition (smMLCK; 1µM, Lys1): 18.7%
Inhibition (smMLCK; 1µM, Lys2): -2.1%
Inhibition (FER; 0.1µM, Activation Loop): -5.4%
Inhibition (FER; 0.1µM, Lys1): 1.7%
Inhibition (FER; 1µM, Activation Loop): -16.1%
Inhibition (FER; 1µM, Lys1): 5.0%
Inhibition (IRAK1; 0.1µM): 3.0%
Inhibition (IRAK1; 1µM): 1.7%
Inhibition (HPK1; 0.1µM, Lys2): 13.0%
Inhibition (HPK1; 1µM, Lys1): 8.1%
Inhibition (HPK1; 1µM, Lys2): 21.1%
